Experiments:
[1] = tested on: vertebral fracture / acute back pain; details: cited from earlier work
[2] = biological target: T1, calcitonin receptor (CTR) (Homo sapiens, UniProt P30988); test: Ca^2+ concentration assay, HEK293 CALCR-HiTSeeker cell line; type: cell-based; set-up: expressed in transfected cells; details: HEK293 CALCR-HiTSeeker cells
T1 sequence (P30988 25-474): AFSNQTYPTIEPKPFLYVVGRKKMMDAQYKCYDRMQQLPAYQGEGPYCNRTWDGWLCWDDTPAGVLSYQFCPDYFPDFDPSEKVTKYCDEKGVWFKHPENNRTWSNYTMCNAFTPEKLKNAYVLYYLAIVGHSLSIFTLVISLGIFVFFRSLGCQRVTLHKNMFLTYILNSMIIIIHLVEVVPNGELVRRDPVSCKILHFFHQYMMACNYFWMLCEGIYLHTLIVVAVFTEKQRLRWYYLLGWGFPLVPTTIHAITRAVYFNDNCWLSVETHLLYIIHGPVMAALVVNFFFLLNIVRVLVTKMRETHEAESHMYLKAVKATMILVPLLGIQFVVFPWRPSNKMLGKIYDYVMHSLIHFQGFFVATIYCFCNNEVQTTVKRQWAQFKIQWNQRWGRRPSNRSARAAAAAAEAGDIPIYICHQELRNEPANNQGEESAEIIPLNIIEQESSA

[3] = biological target: T1, calcitonin receptor (CTR); test: cAMP accumulation assay, U2OS Red cAMPNomad-CALCR cell line; type: cell-based; set-up: expressed in transfected cells; host or cells: U2OS Red cAMPNomad-CALCR; details: U2OS Red cAMPNomad-CALCR cells
[4] = tested on: human calcitonin receptor (hCTR); details: Potts Jr., 1992; cited from earlier work
[5] = Circular dichroism analysis, percent α-helicity; type: physicochemical; details: 10-30 μM peptide, 10 mM phosphate buffer pH 7, SDS, 2 h folding
Experimental: Following synthesis of the calcitonin analogues, the helicity of the calcitonin analogues was assessed by circular dichroism analysis. Far ultraviolet spectra (FIG. 6) were obtained from 195-260 nm on J-180 spectropolarimeter (Jasco) using 10-30 μM of sCT and all analogues in 10 mM phosphate buffer pH 7 and in the presence of sodium dodecyl sulphate (SDS), which were left for 2 h to allow folding. Each spectrum represents the average of 3 scans, and the mean residue ellipticity (θMRE) was calculated according to the following equation: […]
Percentage helicity of peptides as presented in Table 2 was calculated according to the following equation (Sommese, et al. 2010): […]
where n is the number of amino acids in the peptide.

[6] = Degradation in simulated intestinal fluid (SIF); details: simulated intestinal fluid, pH 6.8, SIF t1/2, pancreatin 2 mg/mL stock, pH 6.8, 37 °C
[7] = Degradation in simulated gastric fluid (SGF); type: in vitro ADME; details: pH 1.3, 37 °C
Experimental: sCT and its analogues were evaluated for their degradation in simulated gastric fluid (SGF). The stock solution of each analogue was prepared by dissolving 2 mg of the peptide in 1 mL water. The stock solution of pepsin enzyme was prepared by dissolving 5 mg of pepsin in 5 mL of 10 mM HCl (1 mg/mL), and then was diluted to a 0.2 mg/mL with 10 mM HCl. 7 For degradation, 34 μL of pepsin (0.2 mg/mL) was added to 100 μL of peptide (2 mg/mL) at pH 1.3 and the reaction incubated at 37° C. To monitor the degradation, 10 μL of the reaction aliquots were taken and quenched with 10 μL of 10 mM NaOH every 30 min for several hours and analyzed by HPLC using XSelect C18 column ([…], 130 A, 4.6×150 mm) with a gradient of 5-70% of 0.1% TFA in MeCN over 20 min with monitoring at 220 nm.

Ca^2+ EC50 / efficacy [2]	EC50 ([2]; read-out: Ca^2+ EC50)	cAMP EC50 / potency [3]	EC50 ([3]; overnight incubation, read-out: cAMP EC50)	% α helicity [5]	half-life [6]	SGF t1/2 ([7]; pepsin 0.2 mg/mL stock)	half-life ([7]; simulated gastric fluid, pH 1.3, pepsin 0.2 mg/mL stock, read-out: SGF t1/2)	Compound	vertebral fracture recurrence and pain relief ([1]; Chesnut III, et al., 2000)	side effects of parenteral sCT ([1]; intra-muscular and subcutaneous injections)	affinity for hCTR [4]	potency [4]
–	–	–	–	–	–	–	–	calcitonin	reduces the risk of vertebral fracture recurrence and provides pain relief for acute back pain caused by vertebral fractures	–	–	–
similar	0.087 ± 0.0175 µM	EC50 in the nanomolar range	0.0135 ± 0.0045 µM	98.6%	7.1 ± 0.7 min	35.6 ± 0.1 min	35 min	CC(C)C[C@H](NC(=O)[C@H](CCCCN)NC(=O)CNC(=O)[C@H](CC(C)C)NC(=O)[C@@H](NC(=O)[C@@H]1CSSC[C@H](N)C(=O)N[C@@H](CO)C(=O)N[C@@H](CC(N)=O)C(=O)N[C@@H](CC(C)C)C(=O)N[C@@H](CO)C(=O)N[C@@H]([C@@H](C)O)C(=O)N1)C(C)C)C(=O)N[C@@H](CO)C(=O)N[C@@H](CCC(N)=O)C(=O)N[C@@H](CCC(=O)O)C(=O)N[C@@H](CC(C)C)C(=O)N[C@@H](Cc1c[nH]cn1)C(=O)N[C@@H](CCCCN)C(=O)N[C@@H](CC(C)C)C(=O)N[C@@H](CCC(N)=O)C(=O)N[C@H](C(=O)N[C@@H](Cc1ccc(O)cc1)C(=O)N1CCC[C@H]1C(=O)N[C@@H](CCCNC(=N)N)C(=O)N[C@H](C(=O)N[C@@H](CC(N)=O)C(=O)N[C@H](C(=O)NCC(=O)N[C@@H](CO)C(=O)NCC(=O)N[C@H](C(=O)N1CCC[C@H]1C(N)=O)[C@@H](C)O)[C@@H](C)O)[C@@H](C)O)[C@@H](C)O [sCT, reference compound]	–	gastrointestinal (GI) disturbances and injection site reactions	highest affinity for the human calcitonin receptor (hCTR)	highest potency

Source: patent US20260308222A1, “STABILIZED ANALOGUES OF CALCITONIN” (YISSUM RESEARCH DEVELOPMENT COMPANY OF THE HEBREW …, priority 2024, published 2026)
